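Five compound concentrations were applied to cells in 96-well plates for 48 hours; endpoints were derived by simple linear interpolation of the resulting dose-response curve. The concentration for 50% growth inhibition is given as GI50.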 Activity calls are given as the source filed them. Rule as the data show it: active = GI50 up to about 1.1 µM and inactive = higher.
What was measured:
Experiment in all cases: NCI tumour cell line growth inhibition, 48 h
K562 = tested on: K562
OVCAR-3 = tested on: OVCAR-3
UACC-257 = tested on: UACC-257
SNB-19 = tested on: SNB-19
Malme-3M = tested on: Malme-3M
NCI/ADR-RES = tested on: NCI/ADR-RES
IGROV-1 = tested on: IGROV-1
KM12 = tested on: KM12
NCI-H460 = tested on: NCI-H460
A498 = tested on: A498
T47D = tested on: T47D
OVCAR-5 = tested on: OVCAR-5
CCRF-CEM = tested on: CCRF-CEM
HT-29 = tested on: HT-29
U-251 = tested on: U-251
HCC 2998 = tested on: HCC 2998
A549 = tested on: A549
HOP-62 = tested on: HOP-62
SK-MEL-5 = tested on: SK-MEL-5
SR = tested on: SR

SMILES	GI50 (K562)	GI50 (OVCAR-3)	GI50 (UACC-257)	GI50 (SNB-19)	GI50 (Malme-3M)	GI50 (NCI/ADR-RES)	GI50 (IGROV-1)	GI50 (KM12)	GI50 (NCI-H460)	GI50 (A498)	GI50 (T47D)	GI50 (OVCAR-5)	GI50 (CCRF-CEM)	GI50 (HT-29)	GI50 (U-251)	GI50 (HCC 2998)	GI50 (A549)	GI50 (HOP-62)	GI50 (SK-MEL-5)	GI50 (SR)
O=c1cc(N2CCCC2)[nH]c(=O)n1-c1ccc(F)cc1	> 100 µM (inactive)	> 100 µM (inactive)	> 100 µM (inactive)	> 100 µM (inactive)	> 100 µM (inactive)	> 100 µM (inactive)	> 100 µM (inactive)	> 100 µM (inactive)	> 100 µM (inactive)	> 100 µM (inactive)	> 100 µM (inactive)	> 100 µM (inactive)	> 100 µM (inactive)	> 100 µM (inactive)	> 100 µM (inactive)	> 100 µM (inactive)	> 100 µM (inactive)	> 100 µM (inactive)		
C[N+](C)(CCNc1ccc(NCC[N+](C)(C)Cc2ccc([N+](=O)[O-])cc2)c2c1C(=O)c1c(O)ccc(O)c1C2=O)Cc1ccc([N+](=O)[O-])cc1	> 5 µM (inactive)	> 50 µM (inactive)	> 50 µM (inactive)		30 µM (inactive)	> 50 µM (inactive)	> 50 µM (inactive)	1.36 µM (inactive)	3.2 µM (inactive)	> 50 µM (inactive)	> 50 µM (inactive)	> 50 µM (inactive)	> 50 µM (inactive)	17.7 µM (inactive)	> 50 µM (inactive)	> 50 µM (inactive)	28.2 µM (inactive)	> 50 µM (inactive)	15 µM (inactive)	
CN(CCCN(C)CCc1ccc(Cl)c(Cl)c1)CCCN1CCCC1	0.532 µM (active)	3.72 µM (inactive)	1.83 µM (inactive)	3.61 µM (inactive)	2.16 µM (inactive)	6.08 µM (inactive)	3.11 µM (inactive)	2.61 µM (inactive)	2.27 µM (inactive)	1.76 µM (inactive)	2.34 µM (inactive)	3.3 µM (inactive)	0.458 µM (active)	0.55 µM (active)	1.92 µM (inactive)	0.305 µM (active)	2.97 µM (inactive)	2.86 µM (inactive)	2.32 µM (inactive)	
CC[C@H](C)[C@H](NC(=O)N(CCC#N)CCN(CCN(C(=O)N[C@@H](Cc1ccccc1)C(=O)OC)c1ccccc1)C(=O)N[C@H](C(=O)OC)C(C)C)C(=O)OC		17.4 µM (inactive)	13.5 µM (inactive)	15.2 µM (inactive)	17.2 µM (inactive)	23.6 µM (inactive)	19.1 µM (inactive)	20.9 µM (inactive)		19.6 µM (inactive)	14.3 µM (inactive)	25 µM (inactive)	22.8 µM (inactive)		16.2 µM (inactive)	19 µM (inactive)	32.7 µM (inactive)	20.5 µM (inactive)	20.5 µM (inactive)	
Cc1cc(-c2ccccc2)nc2oc(=O)n(C)c12	> 100 µM (inactive)	> 100 µM (inactive)	> 100 µM (inactive)	> 100 µM (inactive)	> 100 µM (inactive)	> 100 µM (inactive)	53.3 µM (inactive)	> 100 µM (inactive)	> 100 µM (inactive)	> 100 µM (inactive)	94.6 µM (inactive)	> 100 µM (inactive)	> 100 µM (inactive)	> 100 µM (inactive)	51.1 µM (inactive)	> 100 µM (inactive)	> 100 µM (inactive)	> 100 µM (inactive)	> 100 µM (inactive)	
NS(=O)(=O)c1ccc(NC(=S)N/C=C2\C(=O)Oc3ccccc3C2=O)cc1	35.1 µM (inactive)	27.2 µM (inactive)	67.8 µM (inactive)	19 µM (inactive)		31.4 µM (inactive)	18.9 µM (inactive)	16.5 µM (inactive)	39.1 µM (inactive)	20.5 µM (inactive)	41.9 µM (inactive)	54.5 µM (inactive)	37.9 µM (inactive)	53.5 µM (inactive)	36.2 µM (inactive)	34.8 µM (inactive)	43 µM (inactive)	20.8 µM (inactive)	26.1 µM (inactive)	
CCCCCCCCC[C@@H]1C[C@@H]2CCC3C(C(=O)OCCCCNC(=O)OCc4ccccc4)=C(C)N=C(N1)N32 (stereo not given in full)	1.77 µM (inactive)	4.04 µM (inactive)	3.27 µM (inactive)	6.18 µM (inactive)		2.62 µM (inactive)	2.43 µM (inactive)	3.13 µM (inactive)	3.22 µM (inactive)	4.66 µM (inactive)	2.57 µM (inactive)	5.78 µM (inactive)	2.52 µM (inactive)	3.29 µM (inactive)	2.9 µM (inactive)	3.06 µM (inactive)	4.57 µM (inactive)	3.75 µM (inactive)	1.59 µM (inactive)	
CCOC(=O)c1c[nH]c(C(=O)OCC)c1-c1cccn1-c1ccccc1	15.4 µM (inactive)	16.8 µM (inactive)	26.1 µM (inactive)	31.7 µM (inactive)	10.8 µM (inactive)	19.1 µM (inactive)	10.7 µM (inactive)	10.1 µM (inactive)	23 µM (inactive)	27 µM (inactive)	28.1 µM (inactive)	> 100 µM (inactive)	17.9 µM (inactive)	26.4 µM (inactive)	19.2 µM (inactive)		26.6 µM (inactive)	18.2 µM (inactive)	14.1 µM (inactive)	
Cc1ccc(NC(=O)C23CC4CC(CC(C4)C2)C3)c(C(=O)NNC(=O)c2ccc(Cl)cc2)c1	28.6 µM (inactive)	20.7 µM (inactive)	2.14 µM (inactive)	1.41 µM (inactive)	18.3 µM (inactive)	21.2 µM (inactive)	< 0.01 µM (active)	21.3 µM (inactive)	22 µM (inactive)		18.3 µM (inactive)	17.3 µM (inactive)	21.1 µM (inactive)	23.7 µM (inactive)	17.2 µM (inactive)	12.9 µM (inactive)	20 µM (inactive)	18.4 µM (inactive)	18.4 µM (inactive)	13.7 µM (inactive)
COc1cccc(-n2c(N)c(-c3nc4cc(C(F)(F)F)ccc4s3)c3ccc([N+](=O)[O-])cc3c2=O)c1	> 100 µM (inactive)	> 100 µM (inactive)	> 100 µM (inactive)	> 100 µM (inactive)	> 100 µM (inactive)	> 100 µM (inactive)		> 100 µM (inactive)	> 100 µM (inactive)	> 100 µM (inactive)	> 100 µM (inactive)	> 100 µM (inactive)		> 100 µM (inactive)	> 100 µM (inactive)	> 100 µM (inactive)	> 100 µM (inactive)	> 100 µM (inactive)	> 100 µM (inactive)	
COc1cc(/C=C2\C(=O)N(c3cccc(Cl)c3)C(c3ccccc3)S2(=O)=O)cc(OC)c1OC (stereo not given)	22.3 µM (inactive)	48.8 µM (inactive)	76 µM (inactive)	23.7 µM (inactive)	43.4 µM (inactive)	38.1 µM (inactive)		58.1 µM (inactive)	> 100 µM (inactive)	> 100 µM (inactive)	41.3 µM (inactive)	> 100 µM (inactive)	18.2 µM (inactive)	> 100 µM (inactive)	73.8 µM (inactive)	> 100 µM (inactive)	70.8 µM (inactive)	85.7 µM (inactive)	39.2 µM (inactive)	
CC(C)(C)[Si](C)(C)OCC1OC(n2ccc(N)nc2=O)C(O[Si](C)(C)C(C)(C)C)C1O[Si](C)(C)C(C)(C)C (stereo not given)		1.73 µM (inactive)	3.33 µM (inactive)	3.24 µM (inactive)	1.8 µM (inactive)	15.8 µM (inactive)	2.04 µM (inactive)		1.9 µM (inactive)		2.7 µM (inactive)	1.63 µM (inactive)		1.56 µM (inactive)			3.44 µM (inactive)	2.06 µM (inactive)	2.01 µM (inactive)	2.73 µM (inactive)
O=c1[nH]c(=O)n(Cc2ccccc2CO)cc1Sc1ccccc1	6.78 µM (inactive)	19.5 µM (inactive)	21.6 µM (inactive)	35.7 µM (inactive)	21.4 µM (inactive)	26.8 µM (inactive)	12.3 µM (inactive)	23.7 µM (inactive)	49.7 µM (inactive)		62.4 µM (inactive)	> 100 µM (inactive)	28.7 µM (inactive)	30.5 µM (inactive)	34.4 µM (inactive)	15.7 µM (inactive)	18.5 µM (inactive)	32.8 µM (inactive)	10.1 µM (inactive)	25.4 µM (inactive)
CC(=O)NN(c1ccccc1)C1CCN(c2ccccc2)N1C(C)=O (stereo not given)	2.32 µM (inactive)	> 10 µM (inactive)	> 10 µM (inactive)	> 10 µM (inactive)	3.48 µM (inactive)	5.52 µM (inactive)	> 10 µM (inactive)		> 10 µM (inactive)		> 10 µM (inactive)	> 10 µM (inactive)	> 10 µM (inactive)	5.74 µM (inactive)		3.82 µM (inactive)	> 10 µM (inactive)	> 10 µM (inactive)	> 10 µM (inactive)	6.25 µM (inactive)
C/C(=C\CO)CC/C=C(\C)CNc1ccccc1	28.6 µM (inactive)	18.2 µM (inactive)	27.3 µM (inactive)	62.5 µM (inactive)	13.5 µM (inactive)	40.4 µM (inactive)	> 100 µM (inactive)	28.4 µM (inactive)	> 100 µM (inactive)		14.7 µM (inactive)	> 100 µM (inactive)		19.4 µM (inactive)	59.4 µM (inactive)		50.8 µM (inactive)	> 100 µM (inactive)	16 µM (inactive)	34.3 µM (inactive)

Reference: ChEMBL document CHEMBL1201862, “PubChem BioAssay data set” (2004)
